Each structure is given as a SMILES string.

The subject of one experiment is NMNAT2. The experiment can be described thus: NMNAT2-Hibit nano-luciferase activity in transfected U87MG cells, 5 μM, 48 hours. Format: cell-based. To be noted: NMNAT2-Hibit luciferase plasmid, 48 hours (Table D). As for the experimental part: Selected compounds were tested in vitro. Briefly, U87MG cells were transfected with NMNAT2-Hibit luciferase plasmid. Cells were treated with test compound at 5 μM for 48 hours. Cells were then collected and assayed for nano-luciferase activity.
For `O=C(Cn1cc(C(=O)c2ccco2)c2ccccc21)NCc1ccccc1` [BC181223], the “D: compound efficacy for NMNAT2 activation; increase in NMNAT2 luciferase activity” value is given as “+ (“+” <20% increase in NMNAT2 luciferase activity.)”.

Regarding `CC(NC(=O)Cn1cc(C(=O)C2CCCCC2)c2ccccc21)c1ccccc1` (centres unmarked) [BC181225], the “D: compound efficacy for NMNAT2 activation; increase in NMNAT2 luciferase activity” value is “+ (“+” <20% increase in NMNAT2 luciferase activity.)”.

For the compound `Cc1ccccc1Cn1cc(CCCC(=O)NCc2ccco2)c2ccccc21` [BC181235], the “D: compound efficacy for NMNAT2 activation; increase in NMNAT2 luciferase activity” value was “++ (“++” >20% and <100% increase in NMNAT2 luciferase activity.)”.

For the compound `CCn1cc(CCCC(=O)NCc2ccc(F)cc2)c2ccccc21` [BC181229], the “D: compound efficacy for NMNAT2 activation; increase in NMNAT2 luciferase activity” value is “++ (“++” >20% and <100% increase in NMNAT2 luciferase activity.)”.

On to `Cc1ccc(Cn2cc(C(CC(=O)NCc3ccco3)c3cccc(C)c3)c3ccccc32)cc1` (centres unmarked) [BC181259], for which the “D: compound efficacy for NMNAT2 activation; increase in NMNAT2 luciferase activity” value is “++ (“++” >20% and <100% increase in NMNAT2 luciferase activity.)”.

For `CC(=O)c1cn(CC(=O)NCc2ccc(C)cc2)c2ccccc12` [BC181267], the “D: compound efficacy for NMNAT2 activation; increase in NMNAT2 luciferase activity” value was “+ (“+” <20% increase in NMNAT2 luciferase activity.)”.

For `COCCNC(=O)CCCc1cn(Cc2ccc(C)cc2)c2ccccc12` [BC181234], the “D: compound efficacy for NMNAT2 activation; increase in NMNAT2 luciferase activity” value is “++ (“++” >20% and <100% increase in NMNAT2 luciferase activity.)”.

For a further experiment, the system named is NMNAT2. The experiment can be described thus: NMNAT2-Hibit nano-luciferase activity in transfected U87MG cells, 25 μM, 24 hours. The settings on record: NMNAT2-Hibit luc plasmid, 24 hours (Table B). Format: cell-based. The method, then: Selected compounds were tested in vitro. Briefly, U87MG cells were transfected with NMNAT2-Hibit luc plasmid. Cells were treated with a test compound at 25 μM for 24 hours. Cells were then collected and assayed for nano-luciferase activity.
`Cc1ccc2onc(CNC(=O)N(C)c3ccc(C)c(C)c3)c2c1` [Compound 181056]: the “B: compound efficacy (IC50) for NMNAT2 activation; increase in NMNAT2 luciferase activity” value was “+ (“+” <20% increase in NMNAT2 luciferase activity.)”.

On to `CCCN(C(=O)NCc1noc2ccc(C)cc12)c1ccc(Cl)c(Cl)c1` [Compound 181061], for which the “B: compound efficacy (IC50) for NMNAT2 activation; increase in NMNAT2 luciferase activity” value is given as “+ (“+” <20% increase in NMNAT2 luciferase activity.)”.

As for `Cc1ccc2onc(CNC(=O)NC3CCCCC3C)c2c1` (centres unmarked) [Compound 181085], the “B: compound efficacy (IC50) for NMNAT2 activation; increase in NMNAT2 luciferase activity” value was “+ (“+” <20% increase in NMNAT2 luciferase activity.)”.

As to `COc1cccc(CNC(=O)NCc2noc3ccc(C)cc23)c1` [Compound 181076], the “B: compound efficacy (IC50) for NMNAT2 activation; increase in NMNAT2 luciferase activity” value was “+ (“+” <20% increase in NMNAT2 luciferase activity.)”.

For the compound `CCc1ccccc1NC(=O)NCc1noc2ccc(C)cc12` [Compound 181075], the “B: compound efficacy (IC50) for NMNAT2 activation; increase in NMNAT2 luciferase activity” value is reported as “+ (“+” <20% increase in NMNAT2 luciferase activity.)”.

For `CSc1ccc(CCNC(=O)NCc2noc3ccccc23)cc1` [Compound 181033], the “B: compound efficacy (IC50) for NMNAT2 activation; increase in NMNAT2 luciferase activity” value was “++ (“++” >20% and <100% increase in NMNAT2 luciferase activity.)”.

Take `Cc1ccc(NC(=O)NCc2noc3ccc(C)cc23)c(Cl)c1` [Compound 181062]: the “B: compound efficacy (IC50) for NMNAT2 activation; increase in NMNAT2 luciferase activity” value is “+ (“+” <20% increase in NMNAT2 luciferase activity.)”.

As for `Cc1ccc2onc(CNC(=O)Nc3ccc(C)c(F)c3)c2c1` [Compound 181039], the “B: compound efficacy (IC50) for NMNAT2 activation; increase in NMNAT2 luciferase activity” value was “+ (“+” <20% increase in NMNAT2 luciferase activity.)”.

Turning to `Cc1ccc2onc(CNC(=O)NCc3cccnc3)c2c1` [Compound 181051], the “B: compound efficacy (IC50) for NMNAT2 activation; increase in NMNAT2 luciferase activity” value is “+ (“+” <20% increase in NMNAT2 luciferase activity.)”.

Staying with this experiment, now noted: NMNAT2-Hibit luc plasmid, 24 hours (Table C).
In the case of `O=C(Cn1ccc2ccccc21)NCc1ccco1` [Compound 181147], the “C: Compound efficacy for NMNAT2 activation; increase in NMNAT2 luciferase activity” value is on record as “+ (“+” <20% increase in NMNAT2 luciferase activity.)”.

Take `O=C(Cn1ccc2ccc(Br)cc21)NCCCc1ccco1` [Compound 181153]: the “C: Compound efficacy for NMNAT2 activation; increase in NMNAT2 luciferase activity” value was “++ (“++” >20% and <100% increase in NMNAT2 luciferase activity.)”.

With `Cc1ccc(Cn2cc(CCC(=O)NCc3ccco3)c3ccccc32)cc1` [Compound 181116], the “C: Compound efficacy for NMNAT2 activation; increase in NMNAT2 luciferase activity” value is “++ (“++” >20% and <100% increase in NMNAT2 luciferase activity.)”.

As to `Cc1cc(C)n(CC(=O)Nc2ccc(C(=O)NCc3ccco3)cc2)c(=O)c1C#N` [Compound 181133], the “C: Compound efficacy for NMNAT2 activation; increase in NMNAT2 luciferase activity” value is “+ (“+” <20% increase in NMNAT2 luciferase activity.)”.

The values are drawn from patent US20220169632A1, “METHODS AND MATERIALS FOR INCREASING OR MAINTAINING NICOTINAMIDE MONONUCLEOTIDE ADENYLYL TRANSFERASE-2 (NMNAT2) POLYPEPTIDE LEVELS” (University of Pittsburgh - Of the Commonwealth System of …, priority 2019, published 2022).
